Test results as given in ChEMBL document CHEMBL1201862, “PubChem BioAssay data set” (2004).
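Protocol summary: plate cells (96-well), add compound at 5 concentrations, incubate 48 h, interpolate endpoints linearly. Here, GI50 denotes the concentration required for 50% inhibition of growth.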 The source made the active and inactive calls. Rule as the data show it: active = GI50 up to about 1.1 µM and inactive = higher.

Columns and labels:
Experiment in all cases: NCI-60 cell line screen, 48 h
[1] = system: OVCAR-3
[2] = system: M19-MEL
[3] = system: M14
[4] = system: NCI-H522
[5] = system: K562
[6] = system: UACC-62
[7] = system: KM12
[8] = system: SR
[9] = system: SF-295
[10] = system: SK-MEL-28
[11] = system: UACC-257
[12] = system: Malme-3M
[13] = system: RPMI-8226
[14] = system: LOX IMVI
[15] = system: XF498
[16] = system: EKVX
[17] = system: DLD-1
[18] = system: CCRF-CEM
[19] = system: HT-29
[20] = system: HOP-62
[21] = system: SF-268
[22] = system: 786-0
[23] = system: SW-620
[24] = system: HOP-92
[25] = system: HCC 2998
[26] = system: U-251
[27] = system: SK-OV-3
[28] = system: HCT-116
[29] = system: OVCAR-4
[30] = system: NCI-H23
[31] = system: CAKI-1
[32] = system: SNB-75
[33] = system: MOLT-4
[34] = system: SNB-78
[35] = system: NCI-H226
[36] = system: SK-MEL-5
[37] = system: KM-20L2
[38] = system: LXFL 529
[39] = system: COLO 205
[40] = system: SN12C
[41] = system: DMS-273
[42] = system: ACHN
[43] = system: DMS-114
[44] = system: SNB-19
[45] = system: HCT-15
[46] = system: HL-60
[47] = system: RXF 631
[48] = system: UO-31
[49] = system: RXF 393
[50] = system: A549
[51] = system: A498
[52] = system: SF-539
[53] = system: OVCAR-5
[54] = system: HOP-18
[55] = system: TK-10
[56] = system: OVCAR-8
[57] = system: NCI-H460
[58] = system: IGROV-1
[59] = system: SK-MEL-2

CC(=O)/C=C/c1cccc(N=S)c1
GI50 [1]: 19.2 µM (inactive) | GI50 [2]: 6.25 µM (inactive) | GI50 [3]: 6.71 µM (inactive) | GI50 [4]: 18.6 µM (inactive) | GI50 [5]: 4.62 µM (inactive) | GI50 [6]: 21.6 µM (inactive) | GI50 [7]: 6.68 µM (inactive) | GI50 [8]: 7.78 µM (inactive) | GI50 [9]: 15.2 µM (inactive) | GI50 [10]: 16.5 µM (inactive) | GI50 [11]: 29.4 µM (inactive) | GI50 [12]: > 73.8 µM (inactive) | GI50 [13]: 3.63 µM (inactive) | GI50 [14]: 2.39 µM (inactive) | GI50 [15]: > 100 µM (inactive) | GI50 [16]: > 40.8 µM (inactive) | GI50 [17]: 4.88 µM (inactive) | GI50 [18]: 8.24 µM (inactive) | GI50 [19]: 6.28 µM (inactive) | GI50 [20]: > 63.5 µM (inactive) | GI50 [21]: > 30.3 µM (inactive) | GI50 [22]: 6 µM (inactive) | GI50 [23]: 2.44 µM (inactive) | GI50 [24]: > 100 µM (inactive) | GI50 [25]: 12.7 µM (inactive) | GI50 [26]: 6.64 µM (inactive) | GI50 [27]: > 48.1 µM (inactive) | GI50 [28]: 1.39 µM (inactive) | GI50 [29]: 52.2 µM (inactive) | GI50 [30]: 30.7 µM (inactive) | GI50 [31]: > 50.9 µM (inactive) | GI50 [32]: 21.1 µM (inactive) | GI50 [33]: > 40.1 µM (inactive) | GI50 [34]: 32.8 µM (inactive) | GI50 [35]: 46 µM (inactive) | GI50 [36]: 23.4 µM (inactive) | GI50 [37]: 13.8 µM (inactive) | GI50 [38]: 5.78 µM (inactive) | GI50 [39]: 20.1 µM (inactive) | GI50 [40]: 25.6 µM (inactive) | GI50 [41]: 7.06 µM (inactive) | GI50 [42]: > 38.4 µM (inactive) | GI50 [43]: 23 µM (inactive) | GI50 [44]: > 43.2 µM (inactive) | GI50 [45]: 8.79 µM | GI50 [46]: 5.79 µM (inactive) | GI50 [47]: 39 µM (inactive) | GI50 [48]: 39.4 µM (inactive) | GI50 [49]: 17.6 µM (inactive) | GI50 [50]: 26.5 µM (inactive) | GI50 [51]: 27 µM (inactive) | GI50 [52]: 5.9 µM (inactive) | GI50 [53]: > 69 µM (inactive) | GI50 [54]: 50 µM (inactive) | GI50 [55]: > 52.8 µM (inactive) | GI50 [56]: 12.2 µM (inactive) | GI50 [57]: > 36.9 µM (inactive) | GI50 [58]: 19.2 µM (inactive)

Nc1nc2ncn(CC(O)CO)c2c(=S)[nH]1 (configuration not stated)
GI50 [59]: > 100 µM (inactive) | GI50 [1]: > 100 µM (inactive) | GI50 [2]: > 100 µM (inactive) | GI50 [3]: > 100 µM (inactive) | GI50 [4]: > 100 µM (inactive) | GI50 [5]: > 100 µM (inactive) | GI50 [6]: > 100 µM (inactive) | GI50 [7]: > 100 µM (inactive) | GI50 [8]: > 100 µM (inactive) | GI50 [9]: > 100 µM (inactive) | GI50 [10]: > 100 µM (inactive) | GI50 [11]: > 100 µM (inactive) | GI50 [12]: > 100 µM (inactive) | GI50 [13]: > 100 µM (inactive) | GI50 [14]: > 100 µM (inactive) | GI50 [15]: 23.4 µM (inactive) | GI50 [16]: > 100 µM (inactive) | GI50 [17]: > 100 µM (inactive) | GI50 [18]: > 100 µM (inactive) | GI50 [19]: > 100 µM (inactive) | GI50 [20]: > 100 µM (inactive) | GI50 [21]: > 100 µM (inactive) | GI50 [22]: > 100 µM (inactive) | GI50 [23]: > 100 µM (inactive) | GI50 [24]: > 100 µM (inactive) | GI50 [26]: > 100 µM (inactive) | GI50 [27]: > 100 µM (inactive) | GI50 [28]: > 100 µM (inactive) | GI50 [29]: > 100 µM (inactive) | GI50 [31]: > 100 µM (inactive) | GI50 [32]: > 100 µM (inactive) | GI50 [34]: > 100 µM (inactive) | GI50 [35]: > 100 µM (inactive) | GI50 [36]: > 100 µM (inactive) | GI50 [37]: > 100 µM (inactive) | GI50 [38]: > 100 µM (inactive) | GI50 [39]: > 100 µM (inactive) | GI50 [40]: > 100 µM (inactive) | GI50 [41]: > 100 µM (inactive) | GI50 [42]: > 100 µM (inactive) | GI50 [43]: > 100 µM (inactive) | GI50 [44]: > 100 µM (inactive) | GI50 [45]: > 100 µM | GI50 [46]: > 100 µM (inactive) | GI50 [47]: > 100 µM (inactive) | GI50 [48]: > 100 µM (inactive) | GI50 [49]: > 100 µM (inactive) | GI50 [50]: > 100 µM (inactive) | GI50 [51]: > 100 µM (inactive) | GI50 [52]: > 100 µM (inactive) | GI50 [53]: > 100 µM (inactive) | GI50 [54]: > 100 µM (inactive) | GI50 [55]: > 100 µM (inactive) | GI50 [56]: > 100 µM (inactive) | GI50 [57]: > 100 µM (inactive) | GI50 [58]: > 100 µM (inactive)

CNC1=Nc2ccc(Cl)cc2C(OP(=O)(N2CCOCC2)N2CCOCC2)=NC1
GI50 [59]: > 100 µM (inactive) | GI50 [1]: > 100 µM (inactive) | GI50 [2]: > 100 µM (inactive) | GI50 [3]: > 100 µM (inactive) | GI50 [4]: 26.5 µM (inactive) | GI50 [5]: > 100 µM (inactive) | GI50 [6]: > 100 µM (inactive) | GI50 [7]: > 100 µM (inactive) | GI50 [8]: > 100 µM (inactive) | GI50 [9]: > 100 µM (inactive) | GI50 [10]: > 100 µM (inactive) | GI50 [11]: > 100 µM (inactive) | GI50 [12]: > 100 µM (inactive) | GI50 [13]: > 100 µM (inactive) | GI50 [14]: > 100 µM (inactive) | GI50 [15]: > 100 µM (inactive) | GI50 [16]: 84.9 µM (inactive) | GI50 [17]: > 100 µM (inactive) | GI50 [18]: > 100 µM (inactive) | GI50 [19]: > 100 µM (inactive) | GI50 [22]: > 100 µM (inactive) | GI50 [23]: > 100 µM (inactive) | GI50 [25]: > 100 µM (inactive) | GI50 [26]: > 100 µM (inactive) | GI50 [28]: > 100 µM (inactive) | GI50 [29]: > 100 µM (inactive) | GI50 [30]: > 100 µM (inactive) | GI50 [31]: > 100 µM (inactive) | GI50 [32]: > 100 µM (inactive) | GI50 [33]: > 100 µM (inactive) | GI50 [34]: > 100 µM (inactive) | GI50 [35]: > 100 µM (inactive) | GI50 [36]: > 100 µM (inactive) | GI50 [37]: > 100 µM (inactive) | GI50 [38]: > 100 µM (inactive) | GI50 [40]: > 100 µM (inactive) | GI50 [41]: > 100 µM (inactive) | GI50 [42]: > 100 µM (inactive) | GI50 [43]: > 100 µM (inactive) | GI50 [44]: > 100 µM (inactive) | GI50 [45]: > 100 µM | GI50 [46]: > 100 µM (inactive) | GI50 [47]: > 100 µM (inactive) | GI50 [48]: > 100 µM (inactive) | GI50 [49]: > 100 µM (inactive) | GI50 [50]: > 100 µM (inactive) | GI50 [51]: > 100 µM (inactive) | GI50 [52]: > 100 µM (inactive) | GI50 [53]: > 100 µM (inactive) | GI50 [54]: > 100 µM (inactive) | GI50 [55]: > 100 µM (inactive) | GI50 [56]: > 100 µM (inactive) | GI50 [57]: > 100 µM (inactive)
